This test deals with TNFα trimer (Homo sapiens, UniProt P01375). As to the kind of experiment: TNFα FP Competitive Binding Assay. Particulars: FP binding assay; 20 nM TNFα trimer, 1 nM OregonGreen488 probe; read-out: TNF IC50. In outline: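 Fluorescence polarization competition: 20 nM TNFα trimer with 1 nM fluorescein-labelled probe in HEPES/NaCl/EDTA/Triton X-100 buffer, compound in 12-point 1:3 dilutions (final top 338 μM or 100 μM). Incubated 18-24 h, background-subtracted mP read, variable-slope dose-response fitting.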

The values that follow come from patent publication US10160748B2 (AbbVie Inc., priority 2015, dated 2018).

A value given as a limit tells only on which side of the number the result lay.

One may read the IC50 as the concentration that gives 50% inhibition.

Sequence of TNFα trimer (P01375 77-233 limits assumed): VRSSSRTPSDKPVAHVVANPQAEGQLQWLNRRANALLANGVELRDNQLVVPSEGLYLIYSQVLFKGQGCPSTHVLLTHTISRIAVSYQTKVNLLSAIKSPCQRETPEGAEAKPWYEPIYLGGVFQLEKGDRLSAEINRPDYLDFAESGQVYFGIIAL

In the case of `Cn1c(=O)c2ccc(-c3cnc(C4(O)CCN(C=O)CC4)nc3)cc2n1Cc1ccccc1OC(F)F` [Example 20, 4-(5-(1-(2-(Difluoromethoxy)benzyl)-2-methyl-3-oxo-2,3-dihydro-1H-indazol-6-yl)pyrimidin-2-yl)-4-hydroxypiperidine-1-carbaldehyde], the half-inhibitory concentration (IC50) lay within 1000 to 10000 nM. Consider `C[C@@H]1CN(c2ncc(-c3cc4c(cc3F)c(=O)n(C)n4Cc3ccccc3OC(F)F)cn2)CCN1C(=O)CO` [Example 59, (R)-1-(2-(Difluoromethoxy)benzyl)-5-fluoro-6-(2-(4-(2-hydroxyacetyl)-3-methylpiperazin-1-yl)pyrimidin-5-yl)-2-methyl-1H-indazol-3(2H)-one], for which the concentration for half-maximal inhibition (IC50) was less than 1000 nM.

`Cn1c(=O)c2ccc(-c3cnc(C(C)(C)O)nc3)cc2n1Cc1cc(N2CCOCC2)ccc1OC(F)F` [Example 125, 1-(2-(Difluoromethoxy)-5-morpholinobenzyl)-6-(2-(2-hydroxypropan-2-yl)pyrimidin-5-yl)-2-methyl-1H-indazol-3(2H)-one]: the 50% inhibitory concentration (IC50) lay within 1000 to 10000 nM. The figure for `Cc1ccc(OC(F)F)c(Cn2c3cc(-c4cnc(N5CCN(C(=O)[C@H](C)N)[C@H](C)C5)nc4)ccc3c(=O)n2C)c1` [Example 14.11] is less than 1000 nM; for `Cc1ccc(OC(F)F)c(Cn2c3cc(-c4cnc(C(C)C)nc4)ccc3c(=O)n2C)c1` [Example 124, 1-(2-(Difluoromethoxy)-5-methylbenzyl)-6-(2-isopropylpyrimidin-5-yl)-2-methyl-1H-indazol-3(2H)-one] it is less than 1000 nM. `CC(=O)N1CCN(c2ncc(-c3ccc4c(=O)n(C)n(Cc5cc(C)ccc5SC(F)F)c4n3)cn2)C[C@H]1C` [Example 18.1]: the IC50 is less than 1000 nM. `Cc1ccc(OC(F)F)c(Cn2c3cc(-c4cnc(N5CCC(O)CC5)nc4)ccc3c(=O)n2C)c1` [Example 22, 1-(2-(Difluoromethoxy)-5-methylbenzyl)-6-(2-(4-hydroxypiperidin-1-yl)pyrimidin-5-yl)-2-methyl-1H-indazol-3(2H)-one]: the 50% inhibitory concentration (IC50) is less than 1000 nM. As for `Cn1c(=O)c2ccc(-c3cnc(N4CCOCC4)nc3)cc2n1Cc1ccccc1C#N` [Example 1.12], the IC50 was 1000 to 10000 nM. On to `Cc1ccc(OC(F)F)c(Cn2c3c(F)c(-c4cnc(C(C)(C)O)nc4)ccc3c(=O)n2C)c1` [Example 26.1], for which the IC50 was 1000 to 10000 nM. The figure for `CC(=O)N1CCN(c2ncc(-c3ccc4c(=O)n(C)n(Cc5cc(C)ccc5OC(F)F)c4c3)cn2)CC1` [Example 22.6] is less than 1000 nM; for `CC(c1ccccc1Cl)n1c2cc(-c3cnc(N4CCN(C(=O)CO)[C@H](C)C4)nc3)ccc2c(=O)n1C` (some centres unmarked) [Example 28.4] it is 1000 to 10000 nM; for `CC(=O)N1CCN(c2ncc(-c3ccc4c(=O)n(C)n(Cc5cccc6c5SCC(=O)NC6)c4c3)cn2)C[C@H]1C` [Example 52, (R)-9-((6-(2-(4-Acetyl-3-methylpiperazin-1-yl)pyrimidin-5-yl)-2-methyl-3-oxo-2,3-dihydro-1H-indazol-1-yl)methyl)-4,5-dihydrobenzo[f][1,4]thiazepin-3(2H)-one] it is 1000 to 10000 nM. Turning to `Cn1c(=O)c2ccc(-c3cnc(N4CCN5C(=O)NC[C@@H]5C4)nc3)cc2n1Cc1cc(CO)ccc1OC(F)F` [Example 16.1, (R)-7-(5-(1-(2-(difluoromethoxy)-5-(hydroxymethyl)benzyl)-2-methyl-3-oxo-2,3-dihydro-1H-indazol-6-yl)pyrimidin-2-yl)hexahydroimidazo[1,5-a]pyrazin-3(2H)-one], the IC50 was less than 1000 nM. For `Cn1c(=O)c2ccc(-c3nsc(N4CCOCC4)n3)cc2n1Cc1ccccc1OC(F)F` [Example 10.5], the IC50 was more than 10000 nM. For the compound `Cn1c(=O)c2ccc(-c3cnc(C(C)(C)O)nc3)cc2n1Cc1cc([C@H]2CC[C@@H](C#N)C2)ccc1OC(F)F` (racemic) [Example 97], the concentration for half-maximal inhibition (IC50) is less than 1000 nM. As for `Cn1c(=O)c2ccc(-c3cnc(C4(O)CCN(C(=O)CN)CC4)nc3)cc2n1Cc1ccccc1OC(F)F` [Example 14.3], the IC50 was 1000 to 10000 nM. As for `CC(=O)N1CCN(c2ncc(-c3ccc4c(=O)n(C)n(Cc5cc(COc6ccn[nH]6)ccc5OC(F)F)c4c3)cn2)C[C@H]1C` [Example 102], the concentration for half-maximal inhibition (IC50) is less than 1000 nM.

Turning to `Cn1c(=O)c2cnc(-c3cnc(N4CCOCC4)nc3)cc2n1Cc1ccccc1OC(F)F` [Example 17, 1-(2-(Difluoromethoxy)benzyl)-2-methyl-6-(2-morpholinopyrimidin-5-yl)-1H-pyrazolo[4,3-c]pyridin-3(2H)-one], the half-maximal inhibitory concentration (IC50) was more than 10000 nM. The figure for `Cn1c(=O)c2ccc(-c3cnc(N4CCOCC4)nc3)cc2n1Cc1cccc(OC(F)F)c1` [Example 1.2] is 1000 to 10000 nM; for `CC(=O)N1CCN(c2ncc(-c3ccc4c(=O)n(C)n(Cc5cc(C)ccc5Cl)c4n3)cn2)C[C@H]1C` [Example 18.3] it is less than 1000 nM; for `Cn1c(=O)c2ccc(-c3cnc(N4CCOCC4)nc3)cc2n1Cc1c(Cl)cccc1Cl` [Example 8.1] it is 1000 to 10000 nM. As for `Cc1ccc(OC(F)F)c(Cn2c3cc(-c4cnc(C(C)(C)O)nc4)ccc3c(=O)n2C(F)F)c1` [Example 26.2], the IC50 fell in the range of 1000 to 10000 nM. To `CN1CC[C@@H](Nc2ncc(-c3ccc4c(=O)n(C)n(Cc5cc(CO)ccc5OC(F)F)c4c3)cn2)CC1=O` (single isomer, unassigned) [Example 28] belongs less than 1000 nM.

On to `Cn1c(=O)c2ccc(-c3cnc(N4CCOCC4)nc3)cc2n1Cc1ccccc1OC(F)F` [Example 5, 1-(2-(Difluoromethoxy)benzyl)-2-methyl-6-(2-morpholinopyrimidin-5-yl)-1H-indazol-3(2H)-one], for which the IC50 was less than 1000 nM. The figure for `Cn1c(=O)c2ccc(-c3cnc(N4CC5(COC5)C4)nc3)cc2n1Cc1ccccc1OC(F)F` [Example 2.4] is 1000 to 10000 nM; for `C[C@@H]1CN(c2ncc(-c3ccc4c(=O)n(C)n(Cc5ccccc5OC(F)F)c4c3)cn2)CCN1C(=O)[C@H](O)CO` [Example 39, 1-(2-(Difluoromethoxy)benzyl)-6-(2-((R)-4-((R)-2,3-dihydroxypropanoyl)-3-methylpiperazin-1-yl)pyrimidin-5-yl)-2-methyl-1H-indazol-3(2H)-one] it is less than 1000 nM. Consider `CN1CCC(Nc2ncc(-c3ccc4c(=O)n(C)n(Cc5cc(CO)ccc5OC(F)F)c4c3)cn2)C1=O` (centres unmarked) [Example 16.2], for which the 50% inhibitory concentration (IC50) lay in the range of 1000 to 10000 nM. As for `C[C@@H]1CN(c2ncc(-c3ccc4c(=O)n(C)n(Cc5ccccc5OC(F)F)c4c3)cn2)CCN1C(=O)[C@@H](O)CC(=O)O` [Example 51, (S)-4-((R)-4-(5-(1-(2-(Difluoromethoxy)benzyl)-2-methyl-3-oxo-2,3-dihydro-1H-indazol-6-yl)pyrimidin-2-yl)-2-methylpiperazin-1-yl)-3-hydroxy-4-oxobutanoic acid], the IC50 was less than 1000 nM. For the compound `Cc1ccc(OC(F)F)c(Cn2c3cc(-c4cnc(N5CCN6C(=O)OC[C@@H]6C5)nc4)ccc3c(=O)n2C)c1` [Example 20.2], the IC50 is less than 1000 nM. With `Cc1ccc(OC(F)F)c(Cn2c3cc(-c4cnc(N5CCN(C(=O)CO)C[C@H]5C)nc4)ccc3c(=O)n2C)c1` [Example 22.4], the concentration for half-maximal inhibition (IC50) is less than 1000 nM.

Take `C[C@H]1CN(C(=O)CO)CCN1c1ncc(-c2ccc3c(=O)n(C)n(Cc4ccccc4OC(F)F)c3c2)cn1` [Example 10.17]: the half-inhibitory concentration (IC50) is less than 1000 nM. For the compound `Cn1c(=O)c2ccc(-c3cnc(C(C)(C)O)nc3)cc2n1Cc1ccccc1OC(F)F` [Example 10.1], the IC50 lay within 1000 to 10000 nM. The figure for `Cc1ccc(OC(F)F)c(Cn2c3cc(-c4cnc(N5CCN(C(=O)CN)[C@@H](C)C5)nc4)ccc3c(=O)n2C)c1` [Example 14.7] is less than 1000 nM.

`Cc1ccc(OC(F)F)c(Cn2c3c(F)c(-c4cnc(C(C)(C)O)nc4C)ccc3c(=O)n2C)c1` [Example 45, 1-(2-(Difluoromethoxy)-5-methylbenzyl)-7-fluoro-6-(2-(2-hydroxypropan-2-yl)-4-methylpyrimidin-5-yl)-2-methyl-1H-indazol-3(2H)-one]: the IC50 is less than 1000 nM. In the case of `CC(=O)N1CCN(c2ncc(-c3ccc4c(=O)n(C)n(Cc5nc(C)ccc5OC(F)F)c4c3)cn2)C[C@H]1C` [Example 75, (R)-6-(2-(4-Acetyl-3-methylpiperazin-1-yl)pyrimidin-5-yl)-1-((3-(difluoromethoxy)-6-methylpyridin-2-yl)methyl)-2-methyl-1H-indazol-3(2H)-one], the half-maximal inhibitory concentration (IC50) was less than 1000 nM. As to `Cn1c(=O)c2ccc(-c3cnc(N4CCN5C(=O)NC[C@@H]5C4)nc3)cc2n1Cc1cc(CC#N)ccc1OC(F)F` [Example 68, (R)-2-(4-(Difluoromethoxy)-3-((2-methyl-3-oxo-6-(2-(3-oxohexahydromidazo[1,5-a]pyrazin-7(1H)-yl)pyrimidin-5-yl)-2,3-dihydro-1H-indazol-1-yl)methyl)phenyl)acetonitrile], the IC50 was less than 1000 nM. `Cn1c(=O)c2ccc(-c3cnc(NC4CCOC4)nc3)cc2n1Cc1ccccc1OC(F)F` (centres unmarked) [Example 2.20]: the IC50 lay in the range of 1000 to 10000 nM. Take `Cc1ccc(OC(F)F)c(Cn2c3cc(-c4cnc(N5CCN(S(C)(=O)=O)[C@@H](C)C5)nc4)ccc3c(=O)n2C)c1` [Example 41, (S)-1-(2-(Difluoromethoxy)-5-methylbenzyl)-2-methyl-6-(2-(3-methyl-4-(methylsulfonyl)piperazin-1-yl)pyrimidin-5-yl)-1H-indazol-3(2H)-one]: the 50% inhibitory concentration (IC50) is less than 1000 nM.

Turning to `Cc1ccc(C(F)(F)F)c(Cn2c3cc(-c4cnc(N5CCN6C(=O)OC[C@H]6C5)nc4)ccc3c(=O)n2C)n1` [Example 19.4], the IC50 was less than 1000 nM. `CC(=O)N1CCN(c2ncc(-c3ccc4c(=O)n(C)n(Cc5cc(CC(C)C#N)ccc5OC(F)F)c4c3)cn2)C[C@H]1C` (some centres unmarked) [Example 27.4]: the half-inhibitory concentration (IC50) fell in the range of 1000 to 10000 nM.

In the case of `CC(=O)N1CCN(c2ncc(-c3ccc4c(=O)n(C)n(Cc5ccc(C)cc5SC(F)F)c4c3)cn2)C[C@H]1C` [Example 82, (R)-6-(2-(4-Acetyl-3-methylpiperazin-1-yl)pyrimidin-5-yl)-1-(2-((difluoromethyl)thio)-4-methylbenzyl)-2-methyl-H-indazol-3(2H)-one], the IC50 was less than 1000 nM.
